In US20220047678A1, “Combination Therapy for Treatment of Liver Disease” (Gilead Sciences, Inc., priority 2020, published 2022):

Experiments:
[1] = Safety assessments (adverse events, laboratory abnormalities, vital signs) in 24-week open-label clinical study; format: in vivo, human
Excerpt: This is a proof of concept, open-label study evaluating the safety, tolerability, and efficacy of monotherapy and combination regimens in subjects with NASH. Subjects meeting the study's entry criteria are randomly assigned in a 1:1:1:1:1 ratio to 1 of 5 treatment groups, with approximately 20 subjects in each group, as shown in the FIG. 2. Randomization is stratified by the presence or absence of type 2 diabetes mellitus, as determined by medical history or based on the Screening laboratory values if previously undiagnosed (hemoglobin A1c [HbA1c]≥6.5%). The study may last up to 35 weeks, which includes a 2-week Screening period, a 2 week Pre-Treatment period, up to a 24-week Treatment period, and a 7-week Follow-Up period.
Study drug dosing and administration is as follows, based on treatment group randomization as summarized in FIG. 2: • Treatment Group A: Semaglutide administered subcutaneously with pre-filled pen-injector once weekly. • Treatment Group B: Semaglutide administered subcutaneously with pre-filled pen-injector once weekly, one firsocostat 20 mg tablet, administered orally once daily without regard to food. • Treatment Group C: Semaglutide administered subcutaneously with pre-filled pen-injector once weekly, one cilofexor 30 mg tablet, administered orally once daily without regard to food. • Treatment Group D: Semaglutide administered subcutaneously with pre-filled pen-injector once weekly, one cilofexor 100 mg tablet, administered orally once daily without regard to food. • Treatment Group E: Semaglutide administered subcutaneously with pre-filled pen-injector once weekly, one firsocostat 20 mg tablet administered orally once daily and one cilofexor 30 mg tablet administered orally once daily, both without regard to food.
Semaglutide was administered by subcutaneous injection once weekly with a prefilled pen-injector and was initiated at a starting dose of […], which was increased at 4-week intervals (to 0.5 mg, 1.0 mg, and 1.7 mg) until the recommended target dose of 2.4 mg was reached (from week 17 onwards). Patients who could not tolerate the planned dose-escalation schedule were encouraged to extend any single dose step for a maximum of one additional week, and to re-attempt dose escalation to 2.4 mg at least once. Cilofexor and firsocostat were given orally once daily with or without food.
Safety assessments included adverse events, clinical laboratory assessments, vital signs, electrocardiograms (ECG), and physical examination. Clinical and laboratory adverse events were coded using the Medical Dictionary for Regulatory Activities (MedDRA), version 23.0.
Safety analyses were performed on the safety analysis set, which included all patients who took at least one dose of any study drug. Efficacy analyses were performed on the full analysis set (FAS), which included all randomized patients who received at least one dose of any study drug. Since all dosed subjects were randomized, these two analysis sets included the same patients.

[2] = Serum lipids, change from baseline to week 24; format: in vivo, human; conditions: LS mean
Description: In general, subjects fast (no food or drink, except water) for approximately 10 hours prior to the blood sample collection.
Additional tests include HIV-1 (reflex to HIV-1 RNA), HBV (HBsAg), HCV (reflex to HCV RNA) serology, homeostasis model assessment of Insulin resistance (HOMA-IR, based on fasting glucose and insulin), eGFR as calculated by MDRD, HbA1c, C-peptide, calcitonin, insulin, lipid panel, genomic sample collection, ELF™ Test, and FibroTest®. Biomarker tests include, but are not limited to C-reactive protein (CRP), NMR LipoProfile®, apolipoproteins, and adiponectin.
Imaging assessments (MRI-PDFF, liver stiffness by 2-D magnetic resonance elastography [MRE] and TE) were conducted at screening (or within 4 weeks prior to screening), and at weeks 12 and 24. TE was performed by experienced operators, and MRI-PDFF and MRE images were analyzed by a central reader as previously described [Patel et al. Hepatology. 2020; 72(1):58-71; Loomba et al. Gastroenterology. 2018; 155(5):1463-1473; Loomba et al. Hepatology. 2020 Nov. 10. doi: 10.1002/hep.31622]. Serum samples were collected at screening, baseline, and every 4 weeks through to week 24 for clinical laboratory values; blood biomarkers were assessed at screening, baseline, and weeks 12 and 24.
All protocol-defined, efficacy analyses were exploratory in nature and descriptive statistics are provided. Comparative analyses between combination regimens and semaglutide monotherapy were conducted post-hoc. For evaluation of changes from baseline to week 24, analysis of covariance (ANCOVA) with adjustment for baseline value and diabetes status was used, and least-squares (LS) means, LS mean differences, associated 95% confidence intervals (CI), and p-values were calculated. Proportions of binary responders were compared by Fisher's exact test.

**Q.** With CC[C@H](C)[C@H](NC(=O)[C@H](Cc1ccccc1)NC(=O)[C@H](CCC(=O)O)NC(=O)[C@H](CCCCNC(=O)COCCOCCNC(=O)COCCOCCNC(=O)CC[C@H](NC(=O)CCCCCCCCCCCCCCCCC(=O)O)C(=O)O)NC(=O)[C@H](C)NC(=O)[C@H](C)NC(=O)[C@H](CCC(N)=O)NC(=O)CNC(=O)[C@H](CCC(=O)O)NC(=O)[C@H](CC(C)C)NC(=O)[C@H](Cc1ccc(O)cc1)NC(=O)[C@H](CO)NC(=O)[C@H](CO)NC(=O)[C@@H](NC(=O)[C@H](CC(=O)O)NC(=O)[C@H](CO)NC(=O)[C@@H](NC(=O)[C@H](Cc1ccccc1)NC(=O)[C@@H](NC(=O)CNC(=O)[C@H](CCC(=O)O)NC(=O)C(C)(C)NC(=O)[C@@H](N)Cc1cnc[nH]1)[C@@H](C)O)[C@@H](C)O)C(C)C)C(=O)N[C@@H](C)C(=O)N[C@@H](Cc1c[nH]c2ccccc12)C(=O)N[C@@H](CC(C)C)C(=O)N[C@H](C(=O)N[C@@H](CCCNC(=N)N)C(=O)NCC(=O)N[C@@H](CCCNC(=N)N)C(=O)NCC(=O)O)C(C)C [Semaglutide 2.4 mg, Semaglutide] as the compound, how does the Abdominal distension ([1]; human, in vivo) read?
**A.** Its Abdominal distension is 0 n.

**Q.** What about the Gastroenteritis ([1]; human, in vivo) of the same compound?
**A.** Its Gastroenteritis is 0 n.

**Q.** And the Gastroesophageal reflux disease ([1]; human, in vivo)?
**A.** Its Gastroesophageal reflux disease is 0 n.

**Q.** And the Hypoglycaemia ([1]; human, in vivo)?
**A.** Its Hypoglycaemia is 0 n.

**Q.** And the “Laboratory abnormalities, Grade 3” value ([1]; human, in vivo)?
**A.** The value was 0 n.

**Q.** What about the “Laboratory abnormalities, Grade 4” value ([1]; human, in vivo) of the same compound?
**A.** The value was 0 n.

**Q.** What about the “Pruritus (adverse event of interest)” value ([1]; human, in vivo) of the same compound?
**A.** Its value is 0 n.

**Q.** What about the “Serious adverse events (nature)” value ([1]; human, in vivo) of the same compound?
**A.** The value was “grade 3 diarrhea and vomiting”.

**Q.** And the Death ([1]; patients)?
**A.** Its Death is 0 n.

**Q.** And the “HDL cholesterol, least squares mean change from baseline to week 24” value [2]?
**A.** Its value is -1 mg/dL.

**Q.** What about the “LDL cholesterol, least squares mean change from baseline to week 24” value [2] of the same compound?
**A.** The value was -9 mg/dL.

**Q.** And the “Total cholesterol, least squares mean change from baseline to week 24” value [2]?
**A.** The value was -15 mg/dL.

**Q.** What about the “Triglycerides, least squares mean change from baseline to week 24” value [2] of the same compound?
**A.** Its value is -28 mg/dL.

**Q.** And the “VLDL cholesterol, least squares mean change from baseline to week 24” value [2]?
**A.** The value was -7 mg/dL.
